Publication PMC10766610, “DCAF1-based PROTACs with activity against clinically validated targets overcoming intrinsic- and acquired-degrader resistance” (Nature Communications, 2024)
pIC50: −log10 of the molar value.

How the values were obtained:
Type in all cases: cell-based
[1] = target: BTK (Homo sapiens, UniProt Q06187); assay: Intracellular BTK engagement NanoBRET, intact HEK293A cells; details: 2 h, read-out: IC50 BTK target engagement
Procedure: Thus, HEK293A cells were batch-transfected by adding 1 μg pLenti6 BTK-Nanoluc vector and 9 μg Transfection Carrier DNA (pcDNA3.1 Hygro+) to 1 mL of Opti-MEM without phenol red (Thermo Fisher). After addition of 40 μL ViaFect (Promega) and incubation for 20 min, the DNA:lipid mixture was added to trypsinized HEK293A cells suspended at 2 × 10^5/mL in 10 ml growth medium. 100 μL of the resulting cell:DNA:lipid suspension was then seeded at 2 × 10^4 cells/well into white, clear-bottom 96-well plates (Costar) that were pre-coated with poly-D-Lysine by incubation for 60 min with 30 μL of a sterile-filtered solution of 0.1 mg PDL (Mpbio) dissolved in phosphate-buffered saline, followed by a wash with 200 μL sterile phosphate-buffered and airdrying. […] To measure BRET, NanoBRET NanoGlo substrate (Promega, final dilution of 1:1000) and Extracellular NanoLuc Inhibitor (Promega, final concentration 20 μM) were added, followed by quantification of donor and acceptor luminescence emission on a Pherastar FX (BMG Labtech) multimode reader using 460 nm band-pass and 610 nm long-pass filters, respectively. […]
The mBU values for each treated sample was then divided by the average mBU value determined based on four DMSO-treated vehicle control samples and multiplied by 100 to arrive at % of vehicle-treated control. […]

[2] = target: T1, ABL1 (Homo sapiens, UniProt P00519); assay: Immunoblot of ABL1 in HEK293T cells; details: 6 h
T1 construct: host or cells: HEK293T
Procedure: Whole cell lysates for immunoblotting were prepared by pelleting cells at 4 °C (300 g) for 3 min. Cell pellets were then washed 1x with PBS and resuspended in RIPA lysis buffer (VWR, cat # 97063-270) supplemented with protease (Thermo Scientific, cat # A32955) and phosphatase (Thermo Scientific, cat # A32957) inhibitor tablets. Lysates were clarified at 16,000 × g for 15 min at 4 °C prior to quantification by Lowry assay (Bio-Rad cat # 5000113 and cat # 5000114). Whole-cell lysates were loaded into 4–20% Criterion TGX Precast 18 well gels (Bio-Rad, cat # 5671094) and separated by electrophoreses at 120 V for 1 h. The gels were transferred to a nitrocellulose membrane using the Trans-Blot Turbo (Bio-Rad) for 7 min and then blocked for 1 h at room temperature in Odyssey blocking buffer (LICOR Biosciences, cat # 927-50000). Membranes were probed with the appropriate primary antibodies (diluted 1:1000) overnight at 4 °C in 20% Odyssey blocking buffer in 1x TBST. Membranes were washed three times with 1x TBST (5 min per wash), and then incubated with IRDye goat anti-mouse (LICOR, cat # 926-32210) or goat anti-rabbit (LICOR, cat # 926-32211) secondary antibody diluted 1:10,000 in 20% Odyssey blocking buffer for 1 h at room temperature. After three 5-min washes with 1x TBST, the immunoblots were visualized using the ODYSSEY Infrared Imaging System (LICOR). […]

[3] = target: T2, BRD9 (Homo sapiens, UniProt Q9H8M2); assay: Capillary western of BRD9 in 768-O cells; details: 768-O cells (lacking VHL), 2 h
T2 sequence (Q9H8M2 1-597): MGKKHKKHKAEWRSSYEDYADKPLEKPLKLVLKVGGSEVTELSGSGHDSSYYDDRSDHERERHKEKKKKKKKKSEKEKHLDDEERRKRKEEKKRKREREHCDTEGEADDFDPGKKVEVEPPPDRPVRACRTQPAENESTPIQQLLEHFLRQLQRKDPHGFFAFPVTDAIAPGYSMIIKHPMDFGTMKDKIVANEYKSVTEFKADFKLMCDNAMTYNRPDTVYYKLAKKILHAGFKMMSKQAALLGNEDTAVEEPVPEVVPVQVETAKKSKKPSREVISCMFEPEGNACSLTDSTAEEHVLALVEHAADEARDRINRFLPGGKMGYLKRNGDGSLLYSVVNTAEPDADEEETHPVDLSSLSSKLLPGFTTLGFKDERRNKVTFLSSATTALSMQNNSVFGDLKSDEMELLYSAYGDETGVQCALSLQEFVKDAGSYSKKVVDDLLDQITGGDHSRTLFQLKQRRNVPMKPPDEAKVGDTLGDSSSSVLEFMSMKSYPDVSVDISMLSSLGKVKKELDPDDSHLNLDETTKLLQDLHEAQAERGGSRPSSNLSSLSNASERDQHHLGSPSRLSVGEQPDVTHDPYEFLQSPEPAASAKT
Procedure: Protein peaks were analyzed using Compass for Simple Western version 5.0.1 (ProteinSimple), area under the curve for both α-tubulin ([…]) and BRD9 (90 kDa) per capillary was extracted and BRD9 area was normalized to α-tubulin area on a per-capillary basis before each sample was normalized to the DMSO for each run of three triplicates.

Sequence of BTK (Q06187 2-659 limits assumed): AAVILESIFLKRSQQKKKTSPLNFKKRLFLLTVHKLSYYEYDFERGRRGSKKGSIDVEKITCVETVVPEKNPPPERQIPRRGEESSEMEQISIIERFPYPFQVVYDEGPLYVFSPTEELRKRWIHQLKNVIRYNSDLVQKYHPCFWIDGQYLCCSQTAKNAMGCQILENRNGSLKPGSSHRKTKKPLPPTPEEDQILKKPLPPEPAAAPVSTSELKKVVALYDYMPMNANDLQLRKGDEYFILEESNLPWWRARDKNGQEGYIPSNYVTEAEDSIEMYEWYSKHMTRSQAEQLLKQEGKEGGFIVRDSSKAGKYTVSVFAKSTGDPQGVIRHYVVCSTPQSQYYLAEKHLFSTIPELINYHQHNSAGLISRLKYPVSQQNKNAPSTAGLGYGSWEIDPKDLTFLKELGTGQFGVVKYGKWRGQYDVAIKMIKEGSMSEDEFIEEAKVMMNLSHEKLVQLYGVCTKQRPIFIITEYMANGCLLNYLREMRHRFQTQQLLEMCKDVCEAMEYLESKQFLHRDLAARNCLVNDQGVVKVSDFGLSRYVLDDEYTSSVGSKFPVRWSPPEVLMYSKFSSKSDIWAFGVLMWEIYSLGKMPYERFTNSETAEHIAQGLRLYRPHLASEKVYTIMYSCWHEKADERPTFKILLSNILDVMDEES
T1 sequence (P00519 whole entry): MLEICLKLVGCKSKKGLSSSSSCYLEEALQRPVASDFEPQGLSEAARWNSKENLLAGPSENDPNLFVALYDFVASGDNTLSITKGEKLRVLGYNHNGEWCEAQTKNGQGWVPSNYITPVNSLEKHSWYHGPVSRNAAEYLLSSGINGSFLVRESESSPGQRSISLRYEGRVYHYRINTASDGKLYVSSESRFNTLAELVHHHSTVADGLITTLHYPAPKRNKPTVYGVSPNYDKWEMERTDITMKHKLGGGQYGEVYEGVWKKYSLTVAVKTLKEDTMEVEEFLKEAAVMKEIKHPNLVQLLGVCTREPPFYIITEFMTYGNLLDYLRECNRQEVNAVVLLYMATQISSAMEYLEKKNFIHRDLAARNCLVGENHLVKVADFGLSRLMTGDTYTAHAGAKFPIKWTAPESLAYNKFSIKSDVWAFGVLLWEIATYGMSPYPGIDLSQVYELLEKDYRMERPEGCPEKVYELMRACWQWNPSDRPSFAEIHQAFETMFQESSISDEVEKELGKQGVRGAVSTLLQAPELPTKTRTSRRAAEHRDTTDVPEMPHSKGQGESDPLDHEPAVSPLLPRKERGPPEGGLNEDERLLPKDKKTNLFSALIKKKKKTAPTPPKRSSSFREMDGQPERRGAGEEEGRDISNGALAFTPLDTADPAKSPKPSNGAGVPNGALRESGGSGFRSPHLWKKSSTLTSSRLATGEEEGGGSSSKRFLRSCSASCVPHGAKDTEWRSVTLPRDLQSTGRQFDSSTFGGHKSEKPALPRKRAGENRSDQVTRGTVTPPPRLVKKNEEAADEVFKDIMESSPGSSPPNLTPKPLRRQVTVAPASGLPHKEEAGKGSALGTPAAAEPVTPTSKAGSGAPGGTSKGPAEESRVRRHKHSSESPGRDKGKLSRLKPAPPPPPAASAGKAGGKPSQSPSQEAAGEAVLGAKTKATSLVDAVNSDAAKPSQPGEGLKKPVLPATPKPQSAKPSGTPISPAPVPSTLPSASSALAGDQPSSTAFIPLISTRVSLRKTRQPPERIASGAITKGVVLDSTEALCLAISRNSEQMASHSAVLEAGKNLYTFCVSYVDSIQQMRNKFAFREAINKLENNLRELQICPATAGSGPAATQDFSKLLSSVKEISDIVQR

| Compound | pIC50 [1] | other results |
| --- | --- | --- |
| Cc1c(NC(=O)N2CC(O)(CC(C)(C)C)C2)cc(F)cc1-c1ncnc2[nH]c(-c3cnn(CC(=O)N4CCC5(CC4)CN(CCNC(=O)CCCC(=O)N4CCN(c6ccc7c(NCCN)nc(C8(c9ccc(Cl)cc9)CCCCC8)nc7c6)CC4)CCO5)c3)cc12 [DBt-10] | 5.77 |  |
| Cc1nc(Nc2ncc(C(=O)Nc3c(C)cccc3Cl)s2)cc(N2CCC(OC3CCN(CCCCCCCC(=O)N4CCN(c5ccc6c(NCCN)nc(C7(c8ccc(Cl)cc8)CCCCC7)nc6c5)CC4)CC3)CC2)n1 [DDa-1] |  | ABL1 protein levels [2]: not |
| Cc1c(NC(=O)c2ccc(C(C)(C)O)cc2F)cc(F)cc1-c1ncnc2[nH]c(-c3ccc(CNCCOCCOCCOCCOCCOCCOCCOCCOCCOCCOCCOCCOCCC(=O)N4CCN(c5ccc6c(NCCN)nc(C7(c8ccc(Cl)cc8)CCCCC7)nc6c5)CC4)cc3)cc12 [DBt-5] | 6.41 |  |
| COc1cc(-c2cn(C)c(=O)c3cnccc23)c(OC)cc1CN1CCC(OCCCCCC(=O)N2CCN(c3ccc4c(NCCN)nc(C5(c6ccc(Cl)cc6)CCCCC5)nc4c3)CC2)CC1 [DBr-1] |  | DC50 [3]: 1040 nM |
